Laboratory results: patent US8901147B2, “Bi-heteroaryl compounds as Vps34 inhibitors” (Novartis AG, priority 2010, dated 2014)

What follows are compounds tested against recombinant human Vps34 (Homo sapiens, UniProt Q8NEB9) (assay: Vps34 KinaseGlo assay). Details: KinaseGlo luminescence ATP detection; PI/OG substrate; 1 μM ATP; room temperature; 8 concentrations, n=2.
Assay type: biochemical
Description: It was then resuspended in 3% OctylGlucoside by vortexing and stored at 4° C. 5 μL of a mix of PI/OG with recombinant human Vps34 were added. Kinase reactions were started by addition of 5 μl of ATP-mix containing in a final volume 10 μL 10 mM TRIS-HCl pH 7.5, 3 mM MgCl2, 50 mM NaCl, 0.05% CHAPS, 1 mM DTT and 1 μM ATP, and occurred at room temperature. Reactions were stopped with 10 μl of KinaseGlo and plates were read 10 minutes later in a Synergy2 reader using an integration time of 0.1 seconds per well.

Chain of recombinant human Vps34 (Q8NEB9 whole entry): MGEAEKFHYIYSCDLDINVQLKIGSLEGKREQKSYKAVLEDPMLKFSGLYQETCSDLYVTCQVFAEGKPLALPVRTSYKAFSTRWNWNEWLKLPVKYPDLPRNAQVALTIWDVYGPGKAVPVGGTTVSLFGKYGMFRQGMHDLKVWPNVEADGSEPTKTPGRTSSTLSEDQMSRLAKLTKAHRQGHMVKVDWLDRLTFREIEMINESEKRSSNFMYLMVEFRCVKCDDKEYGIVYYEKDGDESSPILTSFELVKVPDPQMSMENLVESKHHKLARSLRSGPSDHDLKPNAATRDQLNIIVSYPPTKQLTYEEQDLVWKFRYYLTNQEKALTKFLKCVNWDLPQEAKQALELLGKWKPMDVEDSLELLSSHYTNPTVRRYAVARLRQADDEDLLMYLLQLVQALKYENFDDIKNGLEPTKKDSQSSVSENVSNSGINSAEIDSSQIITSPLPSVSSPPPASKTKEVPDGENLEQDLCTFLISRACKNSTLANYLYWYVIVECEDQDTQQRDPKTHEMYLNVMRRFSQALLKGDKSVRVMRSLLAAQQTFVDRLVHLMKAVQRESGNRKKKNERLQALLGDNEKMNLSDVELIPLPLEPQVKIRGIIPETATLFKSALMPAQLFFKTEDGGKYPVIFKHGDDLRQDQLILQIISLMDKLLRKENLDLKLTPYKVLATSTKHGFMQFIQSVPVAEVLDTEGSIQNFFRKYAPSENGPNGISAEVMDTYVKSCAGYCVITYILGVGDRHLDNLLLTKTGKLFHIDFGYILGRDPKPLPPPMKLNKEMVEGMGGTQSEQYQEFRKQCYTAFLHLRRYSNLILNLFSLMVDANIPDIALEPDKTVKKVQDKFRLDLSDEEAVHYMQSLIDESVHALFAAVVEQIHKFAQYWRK

SMILES	IC50 [nM]
CC(O)CNc1ncc(-c2ccnc(Nc3ccncc3)n2)c(CC2CC2)n1 (stereo not drawn) [Example 10j, 1-(4′-(cyclopropylmethyl)-2-(pyridin-4-ylamino)-4,5′-bipyrimidin-2′-ylamino)propan-2-ol]	29
CC(C)(O)CNc1ncc(-c2ccnc(Nc3ccc(Cl)cc3)n2)c(CC2CC2)n1 [Example 16e, 1-(2-(4-chlorophenylamino)-4′-(cyclopropylmethyl)-4,5′-bipyrimidin-2′-ylamino)-2-methylpropan-2-ol]	105
Cc1cc(Nc2nccc(-c3cnc(N)nc3CC3CC3)n2)on1 [Example 15h, 4′-Cyclopropylmethyl-N^2-(3-methyl-isoxazol-5-yl)-[4,5′]bipyrimidinyl-2,2′-diamine]	48
CNc1ncc(-c2ccnc(NC3CCC3)n2)c(CC2CC2)n1 [Example 14f, N^2-cyclobutyl-4′-(cyclopropylmethyl)-N^2′-methyl-4,5′-bipyrimidine-2,2′-diamine]	722
CNc1ncc(-c2ccnc(Nc3ccc(OC)cc3)n2)c(CC2CC2)n1 [Example 14m, 4′-(cyclopropylmethyl)-N^2-(4-methoxyphenyl)-N^2′-methyl-4,5′-bipyrimidine-2,2′-diamine]	119
CNc1ncc(-c2ccnc(NC3CCC(N)CC3)n2)c(CC2CC2)n1 (stereo not drawn) [Example 14j, N^2-(4-aminocyclohexyl)-4′-(cyclopropylmethyl)-N^2′-methyl-4,5′-bipyrimidine-2,2′-diamine]	411
c1cc(Nc2nccc(-c3cnc(NC4CC4)nc3CC3CC3)n2)ccn1 [Example 12c, N^2′-cyclopropyl-4′-(cyclopropylmethyl)-N^2-(pyridin-4-yl)-4,5′-bipyrimidine-2,2′-diamine]	45.5
CSc1ncc(-c2ccnc(Nc3ccncc3)n2)c(CC2CC2)n1 [Example 11, 4′-(Cyclopropylmethyl)-2′-(methylsulfanyl)-N-pyridin-4-yl-4,5′-bipyrimidin-2-amine]	106
CC(C)(O)CNc1ncc(-c2ccnc(Nc3ccc(C#N)cc3)n2)c(C(F)(F)F)n1 [Example 25, 4-(2′-(2-hydroxy-2-methylpropylamino)-4′-(trifluoromethyl)-4,5′-bipyrimidin-2-ylamino)benzonitrile]	117
C[C@H](CO)Nc1ncc(-c2ccnc(Nc3ccncc3)n2)c(CC2CC2)n1 [Example 10p, (R)-2-(4′-(cyclopropylmethyl)-2-(pyridin-4-ylamino)-4,5′-bipyrimidin-2′-ylamino)propan-1-ol]	210
OCCNc1ncc(-c2ccnc(Nc3ccncc3)n2)c(CC2CC2)n1 [Example 10m, 2-(4′-(cyclopropylmethyl)-2-(pyridin-4-ylamino)-4,5′-bipyrimidin-2′-ylamino)ethanol]	11.5
Nc1ccc(Nc2nccc(-c3cnc(N)nc3CC3CC3)n2)cc1 [Example 15u, N^2-(4-aminophenyl)-4′-(cyclopropylmethyl)-4,5′-bipyrimidine-2,2′-diamine]	104
Nc1ncc(-c2ccnc(Nc3ccc(Cl)cn3)n2)c(CC2CC2)n1 [Example 15v, N^2-(5-chloropyridin-2-yl)-4′-(cyclopropylmethyl)-4,5′-bipyrimidine-2,2′-diamine]	193
Nc1ncc(-c2ccnc(N[C@H]3CC[C@H](O)CC3)n2)c(CC2CC2)n1 [Example 6b, (1r, 4r)-4-(2′-amino-4′-(cyclopropylmethyl)-4,5′-bipyrimidin-2-ylamino)cyclohexanol]	264
CNc1ncc(-c2ccnc(Nc3ccc(OC)c(OC)c3)n2)c(CC2CC2)n1 [Example 14q, 4′-(cyclopropylmethyl)-N^2-(3,4-dimethoxyphenyl)-N^2′-methyl-4,5′-bipyrimidine-2,2′-diamine]	862
COc1ncc(-c2ccnc(Nc3ccncc3)n2)c(CC2CC2)n1 [Example 10u, 4′-(cyclopropylmethyl)-2′-methoxy-N-(pyridin-4-yl)-4,5′-bipyrimidin-2-amine]	90.5
CNc1ncc(-c2ccnc(Nc3cc(OC)cc(OC)c3)n2)c(CC2CC2)n1 [Example 14p, 4′-(cyclopropylmethyl)-N^2-(3,5-dimethoxyphenyl)-N^2′-methyl-4,5′-bipyrimidine-2,2′-diamine]	5170
CNc1ncc(-c2ccnc(Nc3ccccc3)n2)c(CC2CC2)n1 [Example 14b, 4′-(cyclopropylmethyl)-N^2′-methyl-N^2-phenyl-4,5′-bipyrimidine-2,2′-diamine]	286
Nc1ncc(-c2ccnc(Nc3nncs3)n2)c(CC2CC2)n1 [Example 15i, 4′-(cyclopropylmethyl)-N^2-(1,3,4-thiadiazol-2-yl)-4,5′-bipyrimidine-2,2′-diamine]	924
CNc1ncc(-c2ccnc(Nc3ccncc3)n2)c(CC2CC2)n1 [Example 14c, 4′-(cyclopropylmethyl)-N^2′-methyl-N^2-(pyridin-4-yl)-4,5′-bipyrimidine-2,2′-diamine]	37

SMILES	IC50 [nM]
CC(C)(O)CNc1ncc(-c2ccnc(Nc3ccc(C#N)cc3)n2)c(CC2CC2)n1 [Example 16b, 4-(4′-(cyclopropylmethyl)-2′-(2-hydroxy-2-methylpropylamino)-4,5′-bipyrimidin-2-ylamino)benzonitrile]	25
CNc1ncc(-c2ccnc(NC3CCN(C)CC3)n2)c(CC2CC2)n1 [Example 14r, 4′-(cyclopropylmethyl)-N^2′-methyl-N^2-(1-methylpiperidin-4-yl)-4,5′-bipyrimidine-2,2′-diamine]	1540
CCNc1ncc(-c2ccnc(Nc3ccncc3)n2)c(CC2CC2)n1 [Example 10b, 4′-(cyclopropylmethyl)-N^2′-ethyl-N^2-(pyridin-4-yl)-4,5′-bipyrimidine-2,2′-diamine]	20
CC(C)(C)Nc1ncc(-c2ccnc(Nc3ccncc3)n2)c(CC2CC2)n1 [Example 10i, N^2′-tert-butyl-4′-(cyclopropylmethyl)-N^2-(pyridin-4-yl)-4,5′-bipyrimidine-2,2′-diamine]	35
Nc1ncc(-c2ccnc(NCc3cccnc3)n2)c(CC2CC2)n1 [Example 15q]	1290
Cc1nc(N)ncc1-c1ccnc(Nc2ccncc2)n1 [Example 21, 4′-Methyl-N^2-pyridin-4-yl-[4,5′]bipyrimidinyl-2,2′-diamine]	22.2
Nc1ncc(-c2ccnc(Nc3ccc(Cl)cc3)n2)c(CC2CC2)n1 [Example 15o, N^2-(4-chlorophenyl)-4′-(cyclopropylmethyl)-4,5′-bipyrimidine-2,2′-diamine]	57
CC(C)(CO)CNc1nccc(-c2cnc(N)nc2CC2CC2)n1 [Example 15g, 3-(2′-amino-4′-(cyclopropylmethyl)-4,5′-bipyrimidin-2-ylamino)-2,2-dimethylpropan-1-ol]	2230
CNc1ncc(-c2ccnc(N[C@H]3CC[C@H](OC)CC3)n2)c(CC2CC2)n1 [Example 14o, 4′-(cyclopropylmethyl)-N^2-((1r,4r)-4-methoxycyclohexyl)-N^2′-methyl-4,5′-bipyrimidine-2,2′-diamine]	374
CC(C)(O)CNc1ncc(-c2ccnc(N[C@H]3CC[C@H](NS(C)(=O)=O)CC3)n2)c(CC2CC2)n1 [Example 16g, N-((1r,4r)-4-(4′-(cyclopropylmethyl)-2′-(2-hydroxy-2-methylpropylamino)-4,5′-bipyrimidin-2-ylamino)cyclohexyl)methanesulfonamide]	872
C[C@@H](Nc1ncc(-c2ccnc(Nc3ccncc3)n2)c(CC2CC2)n1)c1ccccc1 [Example 10h, (R)-4′-(cyclopropylmethyl)-N^2′-(1-phenylethyl)-N^2-(pyridin-4-yl)-4,5′-bipyrimidine-2,2′-diamine]	258
CNc1ncc(-c2ccnc(Nc3cnc4ccccc4c3)n2)c(CC2CC2)n1 [Example 14d, 4′-(cyclopropylmethyl)-N^2′-methyl-N^2-(quinolin-3-yl)-4,5′-bipyrimidine-2,2′-diamine]	133
c1ccc(CNc2ncc(-c3ccnc(Nc4ccncc4)n3)c(CC3CC3)n2)cc1 [Example 10c, N^2′-benzyl-4′-(cyclopropylmethyl)-N^2-(pyridin-4-yl)-4,5′-bipyrimidine-2,2′-diamine]	75.5
c1cc(Nc2nccc(-c3cnc(NC4CCOCC4)nc3CC3CC3)n2)ccn1 [Example 10g, 4′-(cyclopropylmethyl)-N^2-(pyridin-4-yl)-N^2′-(tetrahydro-2H-pyran-4-yl)-4,5′-bipyrimidine-2,2′-diamine]	236
CS(=O)(=O)N[C@H]1CC[C@H](Nc2nccc(-c3cnc(N)nc3CC3CC3)n2)CC1 [Example 15b, N-((1r,4r)-4-(2′-amino-4′-(cyclopropylmethyl)-4,5′-bipyrimidin-2-ylamino)cyclohexyl)methanesulfonamide]	199
c1cc(Nc2nccc(-c3cnc(NC4CCCC4)nc3CC3CC3)n2)ccn1 [Example 10e, N2′-cyclopentyl-4′-(cyclopropylmethyl)-N2-(pyridin-4-yl)-4,5′-bipyrimidine-2,2′-diamine]	78.5
CNc1ncc(-c2ccnc(Nc3cccnc3)n2)c(CC2CC2)n1 [Example 14l, 4′-(cyclopropylmethyl)-N^2′-methyl-N^2-(pyridin-3-yl)-4,5′-bipyrimidine-2,2′-diamine]	48
CC(C)(O)CNc1ncc(-c2ccnc(Nc3ccc(S(C)(=O)=O)cc3)n2)c(CC2CC2)n1 [Example 16d, 1-(4′-(cyclopropylmethyl)-2-(4-(methylsulfonyl)phenylamino)-4,5′-bipyrimidin-2′-ylamino)-2-methylpropan-2-ol]	26
CNc1ncc(-c2ccnc(N[C@H]3CC[C@H](NC(=O)OC(C)(C)C)CC3)n2)c(CC2CC2)n1 [Example 14i, tert-butyl (1r,4r)-4-(4′-(cyclopropylmethyl)-2′-(methylamino)-4,5′-bipyrimidin-2-ylamino)cyclohexylcarbamate]	348
